# Target: HA-GST-Rheb (GTP-γ-S loaded) activating mTORC1 (Homo sapiens (Human), UniProt Q15382)
# Assay: Rheb-dependent in vitro kinase assay (Rheb-IVK; LanthaScreen or Western readout)
# Assay type: biochemical
# Conditions: Rheb-dependent in vitro kinase assay; read-out: IVK IC50
# Chain of HA-GST-Rheb (GTP-γ-S loaded) activating mTORC1 (Q15382 1-181): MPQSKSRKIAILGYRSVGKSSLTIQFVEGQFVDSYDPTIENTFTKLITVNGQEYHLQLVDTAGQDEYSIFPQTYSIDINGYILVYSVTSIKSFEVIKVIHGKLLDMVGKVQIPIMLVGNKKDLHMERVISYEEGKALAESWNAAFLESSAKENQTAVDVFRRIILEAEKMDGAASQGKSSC
row,IC50 [µM],Structure (SMILES)
1,> 100,CCn1c(CO)nc2cc(OCc3ccccc3)cc(Cl)c21 [I-412]
2,> 100,CCn1c(CO)nc2c(Cl)cc(OCc3ccccc3)cc21 [I-413]
3,> 100,CCOCc1nc2cc(OCc3ccccc3)cc(Cl)c2n1CC [I-414]
4,> 100,CCOCc1nc2c(Cl)cc(OCc3ccccc3)cc2n1CC [I-415]
5,> 100,CCn1c(CO)nc2cc(OCc3ccccc3)ccc21 [I-416]
6,> 100,CCn1c(CO)nc2ccc(OCc3ccccc3)cc21 [I-417]
7,100 to 300,"OCc1nc2c(Oc3ccccc3)c(Cl)ccc2[nH]1 [I-418, (5-chloro-4-phenoxy-1H-benzo[d]imidazol-2-yl)methanol]"
8,> 100,O=C1CCC(COc2c(Cl)c(Cl)cc3[nH]c(CO)nc23)N1 (stereo not drawn) [I-419]
9,> 100,Nc1ccnc(COc2c(Cl)c(Cl)cc3[nH]c(CO)nc23)n1 [I-420]
10,> 100,c1ccc(Oc2cccc3nc(-c4ncco4)n(Cc4ccc(-c5nn[nH]n5)cc4)c23)cc1 [I-422]
11,> 100,Nc1nccc(COc2c(Cl)c(Cl)cc3[nH]c(CO)nc23)n1 [I-423]
12,> 100,OCc1nc2c(OCc3ccnc(Cl)n3)c(Cl)c(Cl)cc2[nH]1 [I-424]
13,> 100,Cn1c(CO)nc2cc(Cl)c(OCc3ccccc3)cc21 [I-426]
14,100 to 300,"Clc1ccc2[nH]c(-c3ncco3)nc2c1Oc1ccccc1 [I-427, 2-(5-chloro-4-phenoxy-1H-benzo[d]imidazol-2-yl)oxazole]"
15,> 100,"OCc1nc2c(Br)cc(Oc3ccccc3)cc2[nH]1 [I-428, (4-bromo-6-phenoxy-1H-benzo[d]imidazol-2-yl)methanol]"
16,> 100,COc1ccc(Cn2cnc3c(Br)cc(Oc4ccccc4)cc32)cc1 [I-429]
17,> 100,CCn1c(CO)nc2cc(OCCc3ccccc3)c(Cl)cc21 [I-430]
18,> 100,CCn1c(CO)nc2cc(Cl)c(OCCc3ccccc3)cc21 [I-431]
19,> 100,CCn1c(CO)nc2cc(OCc3ccccc3Cl)c(Cl)cc21 [I-432]
20,> 100,CCn1c(CO)nc2cc(Cl)c(OCc3ccccc3Cl)cc21 [I-433]
21,100 to 300,"CCn1cnc2cc(OCc3ccccc3)c(Cl)cc21 [I-434, 5-(benzyloxy)-6-chloro-1-ethyl-1H-benzo[d]imidazole]"
22,> 100,CCn1cnc2cc(Cl)c(OCc3ccccc3)cc21 [I-435]

row,IC50 [µM],Structure (SMILES)
1,> 100,Nc1ncccc1COc1c(Cl)c(Cl)cc2[nH]c(CO)nc12 [I-436]
2,> 100,Clc1cc2nc(-c3ncco3)n(Cc3cccc(-c4nn[nH]n4)c3)c2cc1Cl [I-438]
3,> 100,N#CCc1nc2c(Oc3ccccc3)c(Cl)ccc2[nH]1 [I-441]
4,> 100,CCn1c(CO)nc2cc(OCc3cccc(F)c3)c(Cl)cc21 [I-442]
5,> 100,CCn1c(CO)nc2cc(Cl)c(OCc3cccc(F)c3)cc21 [I-443]
6,> 100,CCn1c(CO)nc2cc(OCc3ccc(F)cc3)c(Cl)cc21 [I-444]
7,> 100,CCn1c(CO)nc2cc(Cl)c(OCc3ccc(F)cc3)cc21 [I-445]
8,> 100,O=C(O)c1cccc(Cn2c(-c3ncco3)nc3cc(Cl)c(Cl)cc32)c1 [I-446]
9,> 100,NC(=O)c1cccc(Cn2c(-c3ncco3)nc3cc(Cl)c(Cl)cc32)c1 [I-447]
10,> 100,CCn1c(CO)nc2cc(Cl)c(OCc3cccc(Cl)c3)cc21 [I-448]
11,> 100,CCn1c(CO)nc2cc(OCc3ccc(Cl)cc3)c(Cl)cc21 [I-449]
12,> 100,CCn1c(CO)nc2cc(Cl)c(OCc3ccc(Cl)cc3)cc21 [I-450]
13,> 100,NC(=O)c1ccc(Cn2c(-c3ncco3)nc3cc(Cl)c(Cl)cc32)cc1 [I-451]
14,> 100,O=C(O)c1ccc(Cn2c(-c3ncco3)nc3cc(Cl)c(Cl)cc32)cc1 [I-452]
15,> 100,N#Cc1ccc(Cn2c(-c3ncco3)nc3cc(Cl)c(Cl)cc32)cc1 [I-453]
16,> 100,CCn1c(CO)nc2cc(Cl)c(OCc3ccccc3F)cc21 [I-454]
17,> 100,CCn1c(CO)nc2cc(Oc3ccccc3)c(Cl)cc21 [I-455]
18,> 100,CCn1c(CO)nc2cc(Cl)c(Oc3ccccc3)cc21 [I-456]
19,> 100,OCc1nc2cc(OCc3ccccc3)c(Cl)cc2n1CC(F)(F)F [I-457]
20,> 100,OCc1nc2cc(Cl)c(OCc3ccccc3)cc2n1CC(F)(F)F [I-458]
21,> 100,N#Cc1cccc(COc2c(Cl)c(Cl)cc3[nH]c(CO)nc23)c1 [I-459]
22,> 100,OCc1nc2cc(Cl)c(Cl)c(OCC3CCNC3)c2[nH]1 (stereo not drawn) [I-460]

row,IC50 [µM],Structure (SMILES)
1,> 100,CCn1c(CO)nc2cc(OCc3ccccc3F)c(Cl)cc21 [I-461]
2,> 100,OCc1nc2cc(Cl)c(Cl)c(OCC3CCCCN3)c2[nH]1 (stereo not drawn) [I-462]
3,> 100,N#Cc1cccc(Cn2c(-c3ncco3)nc3cc(Cl)c(Cl)cc32)c1 [I-463]
4,> 100,Nc1cccc(COc2c(Cl)c(Cl)cc3nc(CO)[nH]c23)n1 [I-464]
5,100 to 300,"O=C1CCCC(COc2c(Cl)c(Cl)cc3[nH]c(CO)nc23)N1 (stereo not drawn) [I-465, 6-((5,6-dichloro-2-(hydroxymethyl)-1H-benzo[d]imidazol-4-yloxy)methyl)piperidin-2-one]"
6,> 100,OCc1nc2cc(OCc3ccccc3)c(Cl)cc2n1Cc1ccccc1 [I-466]
7,> 100,OCc1nc2cc(Cl)c(OCc3ccccc3)cc2n1Cc1ccccc1 [I-467]
8,> 100,OCc1nc2c(OCC3CCCN3)c(Cl)c(Cl)cc2[nH]1 (stereo not drawn) [I-468]
9,> 100,N#CCc1nc2c(OCc3ccccc3)c(Cl)ccc2[nH]1 [I-469]
10,> 100,OCc1nc2c(Oc3ccccc3)cccc2[nH]1 [I-470]
11,> 100,N#CCc1nc2c(Oc3ccccc3)cccc2[nH]1 [I-471]
12,> 100,N#Cc1ccccc1COc1c(Cl)c(Cl)cc2[nH]c(CO)nc12 [I-472]
13,> 100,N#CCc1nc2cc(OCc3ccccc3)c(Cl)cc2[nH]1 [I-473]
14,300 to 800,"Clc1cc2nc(-c3cnon3)n(Cc3ccc(-c4nn[nH]n4)cc3)c2cc1Cl [I-474, 3-(1-(4-(2H-tetrazol-5-yl)benzyl)-5,6-dichloro-1H-benzo[d]imidazol-2-yl)-1,2,5-oxadiazole]"
15,100 to 300,"NC(=O)Cn1c(CO)nc2cc(OCc3ccccc3)c(Cl)cc21 [I-475, 2-(5-(benzyloxy)-6-chloro-2-(hydroxymethyl)-1H-benzo[d]imidazol-1-yl)acetamide]"
16,> 100,NC(=O)Cn1c(CO)nc2cc(Cl)c(OCc3ccccc3)cc21 [I-476]
17,> 100,Nc1nonc1-c1nc2cc(Cl)c(Cl)cc2[nH]1 [I-477]
18,300 to 800,"OCc1nc2cc(OCc3cccc(Cl)c3)c(Cl)cc2[nH]1 [I-478, (5-chloro-6-(3-chlorobenzyloxy)-1H-benzo[d]imidazol-2-yl)methanol]"
19,> 100,CCCn1c(CO)nc2cc(OCc3ccccc3)c(Cl)cc21 [I-479]
20,> 100,CCCn1c(CO)nc2cc(Cl)c(OCc3ccccc3)cc21 [I-480]
21,100 to 300,"OCc1nc2cc(OCc3ccc(F)cc3)c(Cl)cc2[nH]1 [I-482, (6-chloro-5-(4-fluorobenzyloxy)-1H-benzo[d]imidazol-2-yl)methanol]"
22,300 to 800,"OCc1nc2cc(OCCc3ccccc3)c(Cl)cc2[nH]1 [I-483, (6-chloro-5-phenethoxy-1H-benzo[d]imidazol-2-yl)methanol]"

# — US11339144B2 (Navitor Pharmaceuticals, Inc., priority 2017, dated 2022)
